The text below walks through data of article PMC4057605 (Journal of immunology (Baltimore, Md. : 1950), 2013).

Assay [1] concerns HLA-B*44:02 monochain. Set-up: species or system mouse (HLA-B*44:02 monochain transgenic, H-2 class I null). The conditions noted are these: mouse, in vivo.
Assay [2] relates to HLA-B*44:02 monochain. Also noted: species or system mouse (HLA-B*44:02 monochain transgenic, H-2 class I null). To be noted: mouse, in vivo, sc.
The subject of assay [3] is HLA-A*01:03 monochain. To be noted: mouse, in vivo, sc.
In assay [4] the test system is HLA-A*01:03 monochain. The conditions noted are these: mouse, in vivo.
In assay [5] the test system is HLA-B*27:05 monochain. Also noted: species or system mouse (HLA-B*27:05 monochain transgenic, H-2 class I null). The conditions noted are these: mouse, in vivo.
Assay [6] concerns HLA-B*27:05 monochain. Also noted: species or system mouse (HLA-B*27:05 monochain transgenic, H-2 class I null). To be noted: mouse, in vivo, sc.
Assay [7] relates to HLA-B*08:01 monochain. Set-up: species or system mouse (HLA-B*08:01 monochain transgenic, H-2 class I null). The conditions noted are these: mouse, in vivo.
Assay [8] concerns HLA-B*08:01 monochain. Set-up: species or system mouse (HLA-B*08:01 monochain transgenic, H-2 class I null). To be noted: mouse, in vivo, sc.

AENGWGFYF: the “CD8+ T cell IFN-γ responses after DNA immunization” value in the assay on HLA-B*44:02 monochain [1] was 91/63/46/0 Spots/10^6 Cells. In addition, in the assay with HLA-B*44:02 monochain [2], the “CD8+ T cell IFN-γ responses after peptide immunization” value was 60/41/29/12/9 Spots/10^6 Cells.
On to EADPTGHSY, for which, in the assay with HLA-A*01:03 monochain [3], the “CD8+ T cell IFN-γ responses after peptide immunization” value is recorded as 287/212/123/27 Spots/10^6 Cells. Further, the “CD8+ T cell IFN-γ responses after DNA immunization” value in the assay with HLA-A*01:03 monochain [4] is listed as 118/91/86/38 Spots/10^6 Cells.
EENLLDFVRF: the “CD8+ T cell IFN-γ responses after DNA immunization” value in the assay on HLA-B*44:02 monochain [1] was 134/87/0/0 Spots/10^6 Cells. Moreover, the “CD8+ T cell IFN-γ responses after peptide immunization” value with HLA-B*44:02 monochain [2] is 54/28/27/20/0 Spots/10^6 Cells.
On the same counts, the results for FEDLRVLSF are 66/44/0/0 Spots/10^6 Cells and 167/61/30/17/8 Spots/10^6 Cells.
As to LRGKWQRRYR, the “CD8+ T cell IFN-γ responses after DNA immunization” value with HLA-B*27:05 monochain [5] was 221/213/189/13 Spots/10^6 Cells. In addition, in the assay with HLA-B*27:05 monochain [6], the “CD8+ T cell IFN-γ responses after peptide immunization” value was 113/61/54/23 Spots/10^6 Cells.
The matching figures for SRYWAIRTR: 917/890/411/241 Spots/10^6 Cells and 567/459/110/0 Spots/10^6 Cells.
On to VSDGGPNLY, for which the “CD8+ T cell IFN-γ responses after peptide immunization” value with HLA-A*01:03 monochain [3] is listed as 201/134/71/59 Spots/10^6 Cells. Further, the “CD8+ T cell IFN-γ responses after DNA immunization” value in the assay with HLA-A*01:03 monochain [4] is given as 265/169/105 Spots/10^6 Cells.
With WLKIKRDYL, the “CD8+ T cell IFN-γ responses after DNA immunization” value in the assay on HLA-B*08:01 monochain [7] is recorded as 327/46/39/21/21/11 Spots/10^6 Cells. Also, the “CD8+ T cell IFN-γ responses after peptide immunization” value with HLA-B*08:01 monochain [8] is recorded as 524/103/97/74/64/0 Spots/10^6 Cells.
